Measurements reported in PubChem BioAssay AID248 (DTP/NCI, 2004).
Where “and” joins values, the source holds several entries; their conditions need not be identical. Equal values may be shown once. Toxic doses and inconclusive results are not listed.

Test system: L1210 leukemia ip in BDF1 mice, survival T/C
Assay: NCI In Vivo Anticancer Drug Screen. Data for tumor model L1210 Leukemia (intraperitoneal) in B6D2F1 (BDF1) mice
Details: endpoint: mean survival time, higher = longer survival
Outline: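 Tumor cells were implanted, animals were treated, and survival was followed. The result divides the treated measurement by the vehicle-control measurement.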

[1] = dose: 100.0 mg/kg/injection, schedule: Q04DX003 (ip), vehicle: saline
[2] = dose: 200.0 mg/kg/injection, schedule: Q04DX003 (ip), vehicle: saline
[3] = dose: 100.0 mg/kg/injection, schedule: Q04DX003 (ip), vehicle: saline with Tween-80
[4] = dose: 200.0 mg/kg/injection, schedule: Q04DX003 (ip), vehicle: saline with Tween-80
[5] = dose: 400.0 mg/kg/injection, schedule: Q04DX003 (ip), vehicle: saline with Tween-80
[6] = dose: 100.0 mg/kg/injection, schedule: Q04DX002 (ip), vehicle: Klucel (hydroxypropylcellulose) (HPC)
[7] = dose: 200.0 mg/kg/injection, schedule: Q04DX002 (ip), vehicle: Klucel (hydroxypropylcellulose) (HPC)
[8] = dose: 400.0 mg/kg/injection, schedule: Q04DX002 (ip), vehicle: Klucel (hydroxypropylcellulose) (HPC)
[9] = dose: 100.0 mg/kg/injection, schedule: Q01DX009 (ip), vehicle: Klucel (hydroxypropylcellulose) (HPC)
[10] = dose: 100.0 mg/kg/injection, schedule: Q01DX001 (ip), vehicle: carboxymethylcellulose (CMC)
[11] = dose: 200.0 mg/kg/injection, schedule: Q01DX001 (ip), vehicle: carboxymethylcellulose (CMC)
[12] = dose: 400.0 mg/kg/injection, schedule: Q01DX001 (ip), vehicle: carboxymethylcellulose (CMC)
[13] = dose: 100.0 mg/kg/injection, schedule: Q04DX003 (ip), vehicle: Klucel (hydroxypropylcellulose) (HPC)
[14] = dose: 200.0 mg/kg/injection, schedule: Q04DX003 (ip), vehicle: Klucel (hydroxypropylcellulose) (HPC)
[15] = dose: 400.0 mg/kg/injection, schedule: Q04DX003 (ip), vehicle: Klucel (hydroxypropylcellulose) (HPC)
[16] = dose: 100.0 mg/kg/injection, schedule: Q01DX001 (ip), vehicle: saline
[17] = dose: 200.0 mg/kg/injection, schedule: Q01DX001 (ip), vehicle: saline

With `COC(=O)NC(CI)c1ccccc1` (stereo not drawn) the T/C (dose: 75.0 mg/kg/injection, schedule: Q01DX001 (ip), vehicle: saline) was 110 % of control, the T/C (dose: 150.0 mg/kg/injection, schedule: Q01DX001 (ip), vehicle: saline) was 110 % of control and the T/C (dose: 300.0 mg/kg/injection, schedule: Q01DX001 (ip), vehicle: saline) was 100 % of control.

`CCN1/C(=C\c2ccc3cc(OC)ccc3[n+]2CC)[Se]c2ccc(OC)cc21` was tested, and the T/C (dose: 1.0 mg/kg/injection, schedule: Q01DX001 (ip), vehicle: other) was 98 % of control, the T/C (dose: 2.0 mg/kg/injection, schedule: Q01DX001 (ip), vehicle: other) was 103 % of control and the T/C (dose: 4.0 mg/kg/injection, schedule: Q01DX001 (ip), vehicle: other) was 103 % of control.

With `[Cl][Dy]([Cl])[Cl]` the T/C [1] was 103 % of control and the T/C [2] was 114 % of control.

In the case of `O/N=C(\Cl)c1ccc(/C(Cl)=N\O)cc1`, the T/C (dose: 5.0 mg/kg/injection, schedule: Q01DX001 (ip), vehicle: saline) is reported as 111 % of control, the T/C (dose: 10.0 mg/kg/injection, schedule: Q01DX001 (ip), vehicle: saline) is reported as 105 % of control and the T/C (dose: 20.0 mg/kg/injection, schedule: Q01DX001 (ip), vehicle: saline) is reported as 100 % of control.

With `O=C1N/C(=N\OCCc2ccccc2)CC(NOCCc2ccccc2)N1` (stereo not drawn) the T/C [3] was 94 % of control, the T/C [4] was 94 % of control and the T/C [5] was 97 % of control.

In the case of `CCOC(=O)C(OCC)c1ccccc1` (stereo not drawn), the T/C [1] is reported as 97 % of control, the T/C [2] is reported as 101 % of control and the T/C (dose: 400.0 mg/kg/injection, schedule: Q04DX003 (ip), vehicle: saline) is reported as 89 % of control.

In the case of `COC(=O)COc1ccc(Cl)c2ccccc12`, the T/C (dose: 50.0 mg/kg/injection, schedule: Q04DX002 (ip), vehicle: Klucel (hydroxypropylcellulose) (HPC)) is reported as 89 % of control, the T/C [6] is reported as 96 % of control and the T/C [7] is reported as 99 % of control and 105 % of control. For the same compound, the T/C [8] was 92 % of control.

For `Cn1cnc([N+](=O)[O-])c1[Se]c1nc(N)nc2c1ncn2C1OC(CO)C(O)C1O` (stereo not drawn), the T/C (dose: 12.5 mg/kg/injection, schedule: Q01DX009 (ip), vehicle: saline) was 161 % of control and 165 % of control, the T/C (dose: 25.0 mg/kg/injection, schedule: Q01DX009 (ip), vehicle: saline) was 189 % of control and 201 % of control and the T/C (dose: 50.0 mg/kg/injection, schedule: Q01DX009 (ip), vehicle: saline) was 203 % of control and 255 % of control.

In the case of `COc1cccc(OC)c1OC(=O)Nc1cccc(C(F)(F)F)c1`, the T/C [9] is reported as 101 % of control, the T/C (dose: 200.0 mg/kg/injection, schedule: Q01DX009 (ip), vehicle: Klucel (hydroxypropylcellulose) (HPC)) is reported as 98 % of control and the T/C (dose: 400.0 mg/kg/injection, schedule: Q01DX009 (ip), vehicle: Klucel (hydroxypropylcellulose) (HPC)) is reported as 90 % of control.

In the case of `Cc1ccc(OCC(=O)Nc2ccc3c(c2)C(=O)c2ccccc2C3=O)c(C)c1`, the T/C [10] is reported as 101 % of control, the T/C [11] is reported as 98 % of control and the T/C [12] is reported as 95 % of control.

In the case of `CC1=NC2(CCCCC2)C[N+]1(Cc1ccccc1)Cc1ccccc1`, the T/C [3] is reported as 94 % of control.

`O=C(O)c1ccccc1/C=N/NC(=O)C(O)(c1ccccc1)c1ccccc1` was tested, and the T/C [10] was 114 % of control, the T/C [11] was 101 % of control and the T/C [12] was 103 % of control.

`O=C1C=CC(=O)N1Nc1ccccc1` was tested, and the T/C [13] was 100 % of control, the T/C [14] was 102 % of control and the T/C [15] was 97 % of control.

With `Nc1cc(OCc2ccccc2)ncn1` the T/C (dose: 25.0 mg/kg/injection, schedule: Q01DX001 (ip), vehicle: Klucel (hydroxypropylcellulose) (HPC)) was 103 % of control, the T/C (dose: 50.0 mg/kg/injection, schedule: Q01DX001 (ip), vehicle: Klucel (hydroxypropylcellulose) (HPC)) was 109 % of control and the T/C (dose: 100.0 mg/kg/injection, schedule: Q01DX001 (ip), vehicle: Klucel (hydroxypropylcellulose) (HPC)) was 97 % of control.

In the case of `NC12C3(Cl)C4(Cl)C5(OCCO5)C5(Cl)C3(Cl)C1(Cl)C5(Cl)C24Cl` (stereo not drawn), the T/C (dose: 50.0 mg/kg/injection, schedule: Q01DX001 (ip), vehicle: saline) is reported as 102 % of control, the T/C [16] is reported as 102 % of control and the T/C [17] is reported as 90 % of control. The T/C (dose: 400.0 mg/kg/injection, schedule: Q01DX001 (ip), vehicle: saline) was 102 % of control.

With `CCOC(=O)c1sc(SSc2nc(C)c(C(=O)OCC)s2)nc1C` the T/C [3] was 102 % of control, the T/C [4] was 94 % of control and the T/C [5] was 91 % of control.

For `CCOC(=O)C1=C(O)c2c(sc(C)c2-c2ccccc2)N(S(=O)(=O)c2ccc(C)cc2)CC1`, the T/C (dose: 50.0 mg/kg/injection, schedule: Q04DX003 (ip), vehicle: saline with Tween-80) was 98 % of control, the T/C [3] was 93 % of control and the T/C [4] was 93 % of control. The T/C [5] was 98 % of control.

In the case of `CC(=O)OCC1OC(OCC2OC(Sc3ccccc3)C(OC(C)=O)C(OC(C)=O)C2OC(C)=O)C(OC(C)=O)C(OC(C)=O)C1OC(C)=O` (stereo not drawn), the T/C [6] is reported as 89 % of control, the T/C [7] is reported as 86 % of control and the T/C [8] is reported as 86 % of control.

With `CC1(C)N=C(N)N=C(N)N1c1ccc(CCCC(=O)Nc2cccc(S(=O)(=O)F)c2)cc1` the T/C [16] was 105 % of control and 89 % of control and the T/C [17] was 103 % of control.

In the case of `CCCCCC(=O)N(CC)C(=NCC)c1ccc(NC(=O)c2ccc(C(=O)Nc3ccc(C(=NCC)N(CC)C(=O)CCCCC)cc3)cc2)cc1`, the T/C (dose: 3.12 mg/kg/injection, schedule: Q01DX015 (ip), vehicle: methylcellulose (MC)) is reported as 100 % of control, the T/C (dose: 6.25 mg/kg/injection, schedule: Q01DX015 (ip), vehicle: methylcellulose (MC)) is reported as 102 % of control and the T/C (dose: 12.5 mg/kg/injection, schedule: Q01DX015 (ip), vehicle: methylcellulose (MC)) is reported as 94 % of control. The T/C (dose: 25.0 mg/kg/injection, schedule: Q01DX015 (ip), vehicle: methylcellulose (MC)) was 88 % of control, the T/C (dose: 50.0 mg/kg/injection, schedule: Q01DX015 (ip), vehicle: methylcellulose (MC)) was 100 % of control and the T/C (dose: 100.0 mg/kg/injection, schedule: Q01DX015 (ip), vehicle: methylcellulose (MC)) was 100 % of control. For the same compound, the T/C (dose: 200.0 mg/kg/injection, schedule: Q01DX015 (ip), vehicle: methylcellulose (MC)) was 90 % of control and the T/C (dose: 400.0 mg/kg/injection, schedule: Q01DX015 (ip), vehicle: methylcellulose (MC)) was 90 % of control.

With `CC(=O)NCCCCNS(=O)(=O)c1ccc(C)cc1` the T/C [13] was 95 % of control, the T/C [14] was 95 % of control and the T/C [15] was 93 % of control.

With `CNC1=C(N2CC2)C(=O)C(NC)=C(N2CC2)C1=O` the T/C (dose: 0.01 mg/kg/injection, schedule: Q01DX009 (ip), vehicle: Klucel (hydroxypropylcellulose) (HPC)) was 97 % of control and 102 % of control, the T/C (dose: 0.02 mg/kg/injection, schedule: Q01DX009 (ip), vehicle: Klucel (hydroxypropylcellulose) (HPC)) was 100 % of control and 101 % of control and the T/C (dose: 0.04 mg/kg/injection, schedule: Q01DX009 (ip), vehicle: Klucel (hydroxypropylcellulose) (HPC)) was 109 % of control and 119 % of control. For the same compound, the T/C (dose: 0.05 mg/kg/injection, schedule: Q01DX009 (ip), vehicle: saline) was 106 % of control, the T/C (dose: 0.09 mg/kg/injection, schedule: Q04DX003 (ip), vehicle: Klucel (hydroxypropylcellulose) (HPC)) was 110 % of control and the T/C (dose: 0.1 mg/kg/injection, schedule: Q01DX009 (ip), vehicle: saline) was 118 % of control. For the same compound, the T/C (dose: 0.1 mg/kg/injection, schedule: Q04DX003 (ip), vehicle: saline) was 103 % of control, the T/C (dose: 0.19 mg/kg/injection, schedule: Q01DX009 (ip), vehicle: Klucel (hydroxypropylcellulose) (HPC)) was 161 % of control and the T/C (dose: 0.2 mg/kg/injection, schedule: Q01DX009 (ip), vehicle: saline) was 173 % of control. The T/C (dose: 0.2 mg/kg/injection, schedule: Q04DX003 (ip), vehicle: saline) was 112 % of control, the T/C (dose: 0.37 mg/kg/injection, schedule: Q01DX001 (ip), vehicle: saline) was 108 % of control and the T/C (dose: 0.39 mg/kg/injection, schedule: Q01DX009 (ip), vehicle: Klucel (hydroxypropylcellulose) (HPC)) was 112 % of control and 88 % of control. For the same compound, the T/C (dose: 0.39 mg/kg/injection, schedule: Q04DX003 (ip), vehicle: Klucel (hydroxypropylcellulose) (HPC)) was 156 % of control, the T/C (dose: 0.78 mg/kg/injection, schedule: Q04DX003 (ip), vehicle: Klucel (hydroxypropylcellulose) (HPC)) was 112 % of control and 115 % of control and the T/C (dose: 0.8 mg/kg/injection, schedule: Q04DX003 (ip), vehicle: saline) was 157 % of control.

For `O=C1c2cccc3c(Br)ccc(c23)C(=O)N1CCCN1CCOCC1`, the T/C (dose: 25.0 mg/kg/injection, schedule: Q01DX009 (ip), vehicle: Klucel (hydroxypropylcellulose) (HPC)) was 97 % of control, the T/C (dose: 50.0 mg/kg/injection, schedule: Q01DX009 (ip), vehicle: Klucel (hydroxypropylcellulose) (HPC)) was 90 % of control and the T/C [9] was 102 % of control.

`O=C(NCCCl)Nc1ccccn1` was tested, and the T/C [13] was 90 % of control, the T/C [14] was 94 % of control and the T/C [15] was 86 % of control.
